Experimental data published in US8574578B2, “Antibodies against PDGFRα to inhibit tumor growth” (ImClone LLC, priority 2006, dated 2013).
pIC50: −log10 of the molar value.

Legend:
[1] = Elimination half-life used for loading dose calculation; set-up: species or system mice; details: mouse, in vivo
Excerpt: (§1) S.c. tumor xenografts were established by injecting 10×10^6 SKLMS-1 or U118 cells mixed in Matrigel (Collaborative Research Biochemicals, Bedford, Mass.) into female athymic nude mice (Crl:NU/NU-nuBR, Charles River Laboratories, Wilmington, Mass.). Tumors were allowed to reach a mean tumor volume (π/6×longest length×perpendicular width^2) of about 400 mm^3. The mice were randomized into five groups (n=12) and treated by i.p. injection twice weekly for the duration of the study. Group 1 mice were treated with vehicle control (0.9% NaCl, USP for Irrigation, B/Braun). Groups 2 to 4 mice were treated with 6, 20, and 60 mg/kg of the instant anti-PDGFRα antibody. Group 5 mice were treated with 60 mg/kg human IgG (Sigma). Groups treated with 6, 20, or 60 mg/kg anti-PDGFRα antibody or human IgG were given 21.4, 71.4, and 214 mg/kg loading doses, respectively. The loading doses were calculated to achieve a steady state plasma concentration from the first dose (elimination half-life, 7 days) using a dosing regimen of twice weekly. Tumor volumes were evaluated twice weekly and tumor growth in the treatment groups was compared with a repeated measures ANOVA.

[2] = system: SKLMS-1 cells; test: PDGF-stimulated [3H]thymidine incorporation in SKLMS-1 cells; assay type: cell-based, human
Method: (§2) The ant-PDGFRα monoclonal antibody was tested for its ability to block PDGFAA-induced mitogenesis of PAE Rα cells. Cells were seeded in 96-well tissue culture plates (1×10^4 cells per well) and grown overnight in 100 μL medium per well. The wells were then rinsed with serum-free medium and cells were serum starved overnight with 75 μL serum-free medium added to each well. IgG was added (25 μL/well) and the plates were incubated for 30 minutes at 37° C. PDGF-AA or PDGF-BB (25 μL/well) was then added and plates were incubated for 18 to 20 hours at 37° C. Plates were incubated for an additional 4 hours after each well received 0.25 μCi [^3H]thymidine (25 μL/well). Antibody, PDGF, and [^3H]thymidine were all diluted in serum-free medium. Cells were then washed with PBS plus 1% bovine serum albumin and detached by treatment with trypsin (100 μL/well). […] After processing the filter, DNA incorporated radioactivity was determined on a scintillation counter (Wallac Microbeta, model 1450).
(§3) Human tumor cell lines expressing PDGFRα were tested to determine the affects of the human anti-PDGFRα antibody on malignant growth in in vitro and in vivo systems. Two such tumor cell lines that express PDGFRα as determined by flow cytometry are SKLMS-1 (leiomyosarcoma) and U118 (glioblastoma). […]

[3] = system: U118 cells; test: PDGF-stimulated [3H]thymidine incorporation in U118 cells; assay type: cell-based, human; details: at 66 nmol/L
Method: as §2, §3

[4] = system: glioblastoma (U118) xenograft; test: U118 glioblastoma s.c. xenograft growth; assay type: in vivo, athymic nude mice
Excerpt: as §1
(§4) Resected tumors were fixed in QDL fixative at 4° C. for 24 hours. After paraffin embedding and sectioning at 4 μm, formalin-fixed sections were stained with Mayer's H&E (Richard Allen, Kalamazoo, Mich.).

[5] = system: U118 cells; test: PDGF-AA-induced downstream-effector phosphorylation in U118 cells; assay type: cell-based, human
Method: (§5) Cells were seeded in six-well Falcon tissue culture plates (250,000 cells per well) and allowed to grow overnight. Wells were then rinsed and incubated in serum-free medium. After an overnight incubation to render cells quiescent, the cells were treated with antibodies for 30 minutes at 37° C. followed by addition of PDGF-AA or PDGF-BB and incubation for an additional 10 minutes at 37° C. Cells were then detached and lysed in 200 μL lysis buffer (50 mmol/L Tris-HCl (pH 8.0), 1% Triton X-100, 150 mmol/L NaCl, 1 mmol/L EDTA, 0.1% SDS, 1 mmol/L sodium orthovanadate, and protease inhibitors (Complete Mini, Roche, Mannheim, Germany)). Cell lysates were analyzed by SDS-PAGE and Western blotting using enhanced chemiluminescence reagents and Hyperfilm (Amersham Biosciences).
(§6) Human tumor cell lines expressing PDGFRα were tested to determine the affects of the human anti-PDGFRα antibody on malignant growth in in vitro and in vivo systems. Two such tumor cell lines that express PDGFRα as determined by flow cytometry are SKLMS-1 (leiomyosarcoma) and U118 (glioblastoma). These cell lines also respond to ligand in mitogenic assays and form tumors in mice. SKLMS-1 has the potential for not only paracrine but also autocrine stimulation.

[6] = target: T1, PDGFRα (Homo sapiens, UniProt P16234); test: PDGFRα phosphotyrosine level in U118 tumors in vivo; set-up: Two such tumor cell lines that express PDGFRα as determined by flow cytometry are SKLMS-1 (leiomyosarcoma) and U118 (glioblastoma); endogenous in cells; host or cells: U118 human glioblastoma cells grown as s.c. xenograft tumors in athymic nude mice; species or system mice with U118 tumors; details: 214 mg/kg loading dose, 60 mg/kg 72 hours later; harvested at 168 hours; relative to human IgG control
Method: The level of receptor phosphotyrosine in U118 tumors was evaluated one week after treatment with anti-PDGFRα antibody or human IgGt. Mice with established U118 tumors (500 mm^3) were treated with a 214 mg/kg loading dose followed 72 hours later by a 60 mg/kg maintenance dose of antibody. Tumors were harvested from mice one week (168 hours) after the first antibody injection (at a time before tumor regression is observed on average; see FIG. 18A) and homogenized in phosphorylation assay lysis buffer (see above). The lysates were centrifuged twice at 14,000 rpm and the protein concentration for the collected supernatant was determined (Bio-Rad protein assay, Bio-Rad, Hercules, Calif.). Lysate (4 mg) from each sample was immunoprecipitation using anti-PDGFRα antibody. Immunoprecipitated human PDGFRα was then immunoblotted with either an anti-PDGFR or anti-phosphotyrosine antibody.

[7] = target: T1, PDGFRα; test: Ligand-induced PDGFRα tyrosine phosphorylation in PAE Rα cells; assay type: cell-based, porcine aortic endothelial cells stably expressing PDGFRα; set-up: expressed in transfected cells; host or cells: porcine aortic endothelial cells (PAE Rα)
Method: as §5

[8] = system: SKLMS-1 cells; test: PDGF-AA-induced Akt and MAPK phosphorylation in SKLMS-1 cells; assay type: cell-based, human; details: PDGF-AA stimulation of SKLMS-1 cells
Method: as §5, §6

[9] = system: leiomyosarcoma (SKLMS-1) xenograft; test: SKLMS-1 leiomyosarcoma s.c. xenograft growth; assay type: in vivo, athymic nude mice
Excerpt: as §1, §4

[10] = system: Akt phosphorylation in PC3-ML cells; test: Akt phosphorylation in PC3-ML cells (Western blot); assay type: cell-based, human
Method: Bone marrow samples from normal male donors (ages 18-45) were supplied by Cambrex (Poietics™ Donor Program). Samples were centrifuged at 1,500 rpm in order to separate the soluble and cellular phases. The supernatant was filtered using 0.8 μm and 0.22 μm filters in succession. 50 μl of bone marrow aspirate was administered to cells in 1 ml of medium (1:20 final dilution).
For experiments performed in the presence of serum, cells were cultured in DMEM supplemented with 10% FBS and 50 μg/ml gentamycin for 24 hours prior to exposure to bone marrow. For experiments in the absence of serum (starved cells), cells were washed twice with PBS, the growth medium was replaced with serum-free DMEM, and the cells were incubated for 4 hours prior to exposure to bone marrow preparations. When used, AG-1296, a specific inhibitor of PDGF receptors (Rice et al., 1999, Amer. J. Path. 155, 213-21) was added to cultures 30 min. prior to exposure to bone marrowaspirate. IMC-3G3 antibodies were administered as described at pre-treatment times as stated below.

T1 sequence (P16234 24-1089): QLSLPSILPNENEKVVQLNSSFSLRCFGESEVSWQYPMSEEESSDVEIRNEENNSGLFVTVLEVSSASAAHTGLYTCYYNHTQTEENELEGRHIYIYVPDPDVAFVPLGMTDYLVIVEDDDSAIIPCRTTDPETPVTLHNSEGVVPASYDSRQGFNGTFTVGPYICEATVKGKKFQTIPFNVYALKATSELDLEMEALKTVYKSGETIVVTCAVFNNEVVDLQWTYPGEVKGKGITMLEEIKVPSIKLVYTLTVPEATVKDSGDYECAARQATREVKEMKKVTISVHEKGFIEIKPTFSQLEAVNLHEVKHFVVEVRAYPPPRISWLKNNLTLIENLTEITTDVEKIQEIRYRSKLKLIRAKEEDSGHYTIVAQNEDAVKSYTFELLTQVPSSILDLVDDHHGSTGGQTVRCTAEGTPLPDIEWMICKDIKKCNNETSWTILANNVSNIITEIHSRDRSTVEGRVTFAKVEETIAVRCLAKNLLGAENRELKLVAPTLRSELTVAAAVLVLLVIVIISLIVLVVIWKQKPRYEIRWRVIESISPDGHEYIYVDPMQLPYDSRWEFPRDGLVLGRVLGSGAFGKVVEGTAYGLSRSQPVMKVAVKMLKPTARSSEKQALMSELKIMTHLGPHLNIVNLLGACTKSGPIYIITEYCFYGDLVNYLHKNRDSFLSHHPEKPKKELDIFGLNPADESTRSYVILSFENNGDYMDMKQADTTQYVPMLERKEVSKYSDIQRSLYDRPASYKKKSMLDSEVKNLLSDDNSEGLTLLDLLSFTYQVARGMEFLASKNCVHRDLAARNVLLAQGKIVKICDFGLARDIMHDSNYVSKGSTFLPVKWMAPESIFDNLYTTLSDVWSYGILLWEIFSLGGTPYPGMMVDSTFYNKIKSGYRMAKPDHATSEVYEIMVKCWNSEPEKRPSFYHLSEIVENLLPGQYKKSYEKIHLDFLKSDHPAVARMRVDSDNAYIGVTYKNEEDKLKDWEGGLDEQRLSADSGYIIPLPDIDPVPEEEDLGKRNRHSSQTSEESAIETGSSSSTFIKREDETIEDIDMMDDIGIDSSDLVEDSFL

PDGF-BB-induced receptor phosphorylation [7]: near background levels
pIC50 ([7]; read-out: concentration for 50% inhibition of PDGFRα phosphorylation): 9.60
Substance: IMC-3G3: human anti-PDGFRα monoclonal antibody; heavy chain variable region SEQ ID NO:8, light chain variable region SEQ ID NO:16
elimination half-life [1]: 170 h
PDGF-BB-stimulated mitogenic response [2]: inhibited
inhibition of PDGF-BB-stimulated mitogenic response [3]: 40%
tumor regression ([4]; 6 mg/kg): 4 of 12
% T/C at end of study ([4]; 6 mg/kg i.p. twice weekly): 67%
tumor regression ([4]; 20 mg/kg): 5 of 11
% T/C at end of study ([4]; 20 mg/kg i.p. twice weekly): 63%
tumor regression ([4]; 60 mg/kg): 10 of 12
% T/C at end of study ([4]; 60 mg/kg i.p. twice weekly): 35%
histologic examination of xenografts ([4]; 60 mg/kg, compared with saline-control group): fewer viable tumor cells
inhibition of phosphorylation in U118 cells [5]: effective inhibitor of phosphorylation
level of PDGFRα phosphotyrosine in U118 tumors [6]: reduction in the level of PDGFRα phosphotyrosine
inhibition of Akt phosphorylation [8]: 100%
inhibition of MAPKs phosphorylation [8]: about 80%
final % TIC ([9]; 6 mg/kg i.p. twice weekly): 66%
final % TIC ([9]; 20 mg/kg i.p. twice weekly): 57%
final % TIC ([9]; 60 mg/kg i.p. twice weekly): 31%
tumor regressions ([9]; 6, 20 and 60 mg/kg): no tumor regressions
histologic examination of xenografts ([9]; day 25, compared with saline-control group): reduction in the amount of viable tumor cells and cellular packing
effect on PDGF-BB stimulated Akt phosphorylation ([10]; 20 μg/ml, pre-incubation 30 minutes, 30 ng/ml PDGF-BB): neutralized
inhibition of bone marrow induced Akt phosphorylation ([10]; 30-minute incubation time): about 40%
inhibitory effect on Akt phosphorylation, 120-minute vs 30-minute preincubation ([10]; bone marrow induced): significantly more effective
